Key:
HUVEC monolayers = assay: Inhibition of thrombin-stimulated macromolecule (HRP) permeability of HUVEC monolayers; type: cell-based, human; conditions: Homo sapiens, 1 h; HUVEC on Transwells, 1 μM RP73401, 10 μM Motapizone, 1 mM SNP or 100 nM ANP, 1 U/ml thrombin, HRP passage after 60 min; read-out: Inhibition of SNP- or ANP-induced permeability, -log IC50 (converted)
Method: The procedure to measure macromolecule permeability of endothelial cell monolayers followed the method described by Langeler & van Hinsbergh (1988) with modifications. Human umbilical vein endothelial cells were isolated from umbilical cords according to standard procedures (Jaffe et al. 1973) and cultured in endothelial cell basal medium (EBM) supplemented with 2% FCS, 0.5 ng/ml VEGF, 10 ng/ml bFGF, 5 ng/ml EGF, 20 ng/ml Long R3 IGF-1, 0.2 μg/ml hydrocortisone, 1 μg/ml ascorbic acid, 22.5 μg/ml heparin, 50 μg/ml gentamicin, 50 ng/ml amphotericin B (EGM2 purchased from Promocell GmbH, Heidelberg, Germany). At confluency, cells were trypsinized and replated at 73000 cells per well on 3 μm polycarbonate filter Transwell inserts (Costar GmbH, Bodenheim, Germany) precoated with 10 μg cm^2−1 Fibronectin (Sigma, Taufkirchen, Germany). HUVECs were cultured in EGM2 (100 μl in the upper wells and 600 μl in the lower wells) over four days prior the experiments and medium was changed every other day. At the day of the experiment culture medium was replaced by M199 with 1% human serum albumin. Endothelial cells were preincubated with cyclic nucleotide modifiers (the selective PDE3 inhibitor motapizone, the selective PDE4 inhibitor RP73401, the cGMP generators ANP or SNP and PDE2 inhibitors) for 15 min. HUVECs were then stimulated with Thrombin (1 U ml^−1) (Sigma, Taufkichen, Germany) and horsh radish peroxidase (5 μg/ml) (Sigma, Taufkirchen, Germany) as the macromolecule marker protein was added to the upper wells. Following 1 h incubation time Transwells were removed and the activity of horsh radish peroxidase that penetrated the endothelial cell monolayer was measured in the lower wells with the 3,3′,5,5′-tetramethylbenzidine liquid substrate system from Sigma (Taufkirchen, Germany).
In parallel, compounds according to the invention can inhibit Thrombin-induced permeability of HUVEC monolayers for horsh radish peroxidase (HRP) as a macromolecule marker. […] The concentration-dependent inhibition of HRP permeability at different concentrations was assessed from the percent inhibition in the presence and absence of the PDE2 inhibitors and in the presence of 1 μM RP73401, 10 μM Motapizone and 100 nM ANP.
HUVEC cells on 3 μm polycarbonate filters (Transwells) were preincubated with 1 μM RP73401 (to block PDE4) and 10 μM Motapizone (to block PDE3), 1 mM SNP or 100 nM ANP and test sample over 15 min and then stimulated with 1 U/ml thrombin. HRP passage into the lower wells was assessed after 60 min.

melting point | Structure (SMILES) | IC50 (HUVEC monolayers)
326 °C | COc1ccc(-c2nnc3c4ccccc4c(Nc4ccc(SC)cc4)nn23)cc1 [Example 16, [3-(4-Methoxyphenyl)-[1,2,4]triazolo[3,4-a]phthalazin-6-yl]-(4-methylsulfanylphenyl)-amine] | 7.94 to 316 nM
295 °C | COc1ccc(-c2nnc3c4ccccc4c(Nc4ccc(CC#N)cc4)nn23)cc1 [Example 15, {4-[3-(4-Methoxyphenyl)-[1,2,4]triazolo[3,4-a]phthalazin-6-ylamino]-phenyl}-acetonitrile] | 7.94 to 316 nM

From US7671050B2, “Triazolophthalazines” (NYCOMED GmbH, priority 2005, dated 2010)
